Measurements from patent US20240309003A1, “HETEROCYCLIC COMPOUNDS AS TRIGGERING RECEPTOR EXPRESSED ON MYELOID CELLS 2 AGONISTS AND METHODS OF USE” (Vigil Neuroscience, Inc., priority 2021, published 2024).

Target: T1, human TREM2 (Homo sapiens, UniProt Q9NZC2)
T1 construct: expressed in transfected cells; host or cells: HEK293T
Experiment: TREM2 agonist potency by cellular phosphorylation of Syk (AlphaLisa) in HEK293T-hTREM2 cells
Assay type: cell-based
Procedure, shortened: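 Agonist EC50 from a variable-slope four-parameter fit of % activation, based on AlphaLisa phospho-Syk levels in lysates. Cells: HEK293T-hTREM2 (with DAP12), treated 45 min at room temperature with compound in assay buffer.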

[1] = HEK293 cells expressing human TREM2 and DAP12, Table D
[2] = HEK293 cells expressing human TREM2 and DAP12, Table D-2

T1 sequence (Q9NZC2 19-230): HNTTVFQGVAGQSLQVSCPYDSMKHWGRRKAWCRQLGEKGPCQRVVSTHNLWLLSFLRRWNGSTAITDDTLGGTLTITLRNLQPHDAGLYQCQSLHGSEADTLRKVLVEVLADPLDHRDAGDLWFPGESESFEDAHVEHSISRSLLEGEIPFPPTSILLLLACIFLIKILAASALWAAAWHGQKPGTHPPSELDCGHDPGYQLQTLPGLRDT
T1 sequence (O43914 22-113 partner): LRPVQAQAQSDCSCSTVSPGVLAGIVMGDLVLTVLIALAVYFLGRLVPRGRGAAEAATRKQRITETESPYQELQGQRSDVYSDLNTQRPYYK

Structure (SMILES)	EC50 [1] [nM]	EC50 [2] [nM]
[2H]C1(n2cc([C@H]3C[C@@H](c4nc(-c5ccc(Cl)cc5F)c5nc(C)c(C)nc5n4)CCO3)cn2)CC1 [Example 179, 4-(4-chloro-2-fluorophenyl)-2-((2R,4S)-2-(1-(cyclopropyl-1-d)-1H-pyrazol-4-yl)tetrahydro-2H-pyran-4-yl)-6,7-dimethylpteridine]	< 50	
Cc1nc2nc([C@H]3C[C@@H](C)O[C@@H](c4cnn(C5CC5)c4)C3)nc(-c3ccc(C(F)(F)F)cc3)c2nc1C [Example 159, 2-((2R,4S,6R)-2-(1-cyclopropyl-1H-pyrazol-4-yl)-6-methyltetrahydro-2H-pyran-4-yl)-6,7-dimethyl-4-(4-(trifluoromethyl)phenyl) pteridine]	< 50	
Cc1cc([C@@H]2C[C@H](c3cc4nc(C)c(C)cc4c(-c4ccc(F)cc4F)n3)CCO2)ccn1 [Example 226, 5-(2,4-difluorophenyl)-2,3-dimethyl-7-((2S,4R)-2-(2-methylpyridin-4-yl)tetrahydro-2H-pyran-4-yl)-1,6-naphthyridine]	500 to 3000	
Cc1cc2c(-c3ccc(F)cc3F)cc([C@H]3CCO[C@@H](c4cnn(C5CC5)c4)C3)nc2nc1C [Example 232]	< 50	
[2H]C([2H])([2H])c1nc2nc([C@H]3CCO[C@@H](c4cnn(C5CC5)c4)C3)nc(-c3ccc(Cl)cc3F)c2nc1C([2H])([2H])[2H] [Example 181, 4-(4-chloro-2-fluorophenyl)-2-((2R,4S)-2-(1-cyclopropyl-1H-pyrazol-4-yl)tetrahydro-2H-pyran-4-yl)-6,7-bis(methyl-d3)pteridine]	< 50	
Cc1cc([C@@H]2C[C@H](c3cc4nc(C)c(C)cc4c(-c4ccc(Cl)cc4F)n3)CCO2)ccn1 [Example 225, 5-(4-chloro-2-fluorophenyl)-2,3-dimethyl-7-((2S,4R)-2-(2-methylpyridin-4-yl)tetrahydro-2H-pyran-4-yl)-1,6-naphthyridine]	500 to 3000	
Cc1cnc2c(C34CC(C(F)(F)F)(C3)C4)nc([C@H]3C[C@@H](C)O[C@@H](c4cnn(C5CC5)c4)C3)nc2n1 [Example 140, 2-((2R,4S,6R)-2-(1-cyclopropyl-1H-pyrazol-4-yl)-6-methyltetrahydro-2H-pyran-4-yl)-7-methyl-4-(3-(trifluoromethyl)bicyclo[1.1.1]pentan-1-yl)pteridine]	500 to 3000	
Fc1ccc(-c2nc([C@H]3CCO[C@@H](c4cnn(C5CC5)c4)C3)cc3nc4c(nc23)COC4)c(F)c1 [Example 238, 7-((2R,4S)-2-(1-cyclopropyl-1H-pyrazol-4-yl)tetrahydro-2H-pyran-4-yl)-5-(2,4-difluorophenyl)-1,3-dihydrofuro[3,4-b]pyrido[3,4-e]pyrazine]	50 to 500	
[2H]C1([2H])C[C@@H](c2nc(-c3ccc(F)cc3F)c3nc(C)c(C)nc3n2)C[C@@H](c2cnn(C3CC3)c2)O1 (single isomer, unassigned) [Example 170]	< 50	
Cc1nc2nc(N3CCN(C)[C@@H](c4cnn(C5CC5)c4)C3)nc(-c3ccc(Cl)cc3F)c2nc1C [Example 206, (S)-4-(4-chloro-2-fluorophenyl)-2-(3-(1-cyclopropyl-1H-pyrazol-4-yl)-4-methylpiperazin-1-yl)-6,7-dimethylpteridine]	50 to 500	
Cc1nc2nc(N3C[C@@H](C)O[C@@H](c4cnn(C5CC5)c4)C3)nc(-c3ccnc(C(F)(F)F)c3)c2nc1C [Example 178]	< 50	
Cc1nc2cc([C@H]3CCO[C@@H](c4cnn(C5CC5)c4)C3)cc(-c3ccc(Cl)cc3F)c2nc1C [Example 228, 5-(4-chloro-2-fluorophenyl)-7-((2R,4S)-2-(1-cyclopropyl-1H-pyrazol-4-yl)tetrahydro-2H-pyran-4-yl)-2,3-dimethylquinoxaline]	50 to 500	
Cc1nc2nc([C@H]3CCO[C@@H](c4cnn(C5CCC5)c4)C3)nc(-c3ccc(F)cc3F)c2nc1C [Example 148, 2-((2R,4S)-2-(1-cyclobutyl-1H-pyrazol-4-yl)tetrahydro-2H-pyran-4-yl)-4-(2,4-difluorophenyl)-6,7-dimethylpteridine]	< 50	
COc1ccc([C@@H]2C[C@H](c3nc(-c4ccc(F)cc4F)c4nc(C)c(C)nc4n3)CCO2)cn1 [Example 162, 4-(2,4-difluorophenyl)-2-((2S,4R)-2-(6-methoxypyridin-3-yl)tetrahydro-2H-pyran-4-yl)-6,7-dimethylpteridine]	50 to 500	
Cc1nc2nc([C@H]3CCO[C@@H](c4cnn(C5CC5)c4)C3)nc(C3CCCCC3)c2nc1C [Example 247, 4-cyclohexyl-2-((2R,4S)-2-(1-cyclopropyl-1H-pyrazol-4-yl)tetrahydro-2H-pyran-4-yl)-6,7-dimethylpteridine]	< 50	
Cc1nc2cc([C@@H]3CCO[C@@H](c4cnn(C5CC5)c4)C3)cc(-c3ccc(Cl)cc3F)c2nc1C [Example 230, 5-(4-chloro-2-fluorophenyl)-7-((2R,4R)-2-(1-cyclopropyl-1H-pyrazol-4-yl)tetrahydro-2H-pyran-4-yl)-2,3-dimethylquinoxaline]	3000 to 100000	
Cc1nc2nc([C@H]3CCO[C@@H](c4cnn(C5CC5)c4)C3)cc(-c3ccc(Cl)cc3F)c2nc1C [Example 224, 8-(4-chloro-2-fluorophenyl)-6-((2R,4S)-2-(1-cyclopropyl-1H-pyrazol-4-yl)tetrahydro-2H-pyran-4-yl)-2,3-dimethylpyrido[2,3-b]pyrazine]	< 50	
[2H][C@@]1(c2cnn(C3CC3)c2)C[C@H](c2nc(-c3ccc(F)cc3F)c3nc(C)c(C)nc3n2)CCO1 (single isomer, unassigned) [Example 183]	3000 to 100000	
Cc1nc2nc(N3CCO[C@H](c4cnn(C5CC5)c4)C3)nc(-c3ccc4c(c3)CC4)c2nc1C [Example 242, (R)-4-(4-(bicyclo[4.2.0]octa-1,3,5-trien-3-yl)-6,7-dimethylpteridin-2-yl)-2-(1-cyclopropyl-1H-pyrazol-4-yl)morpholine]	< 50	
Cc1cnc2c(C34CC(C(F)(F)F)(C3)C4)nc(N3C[C@@H](c4cnn(C5CC5)c4)O[C@@H](C)C3)nc2n1 [Example 125, (2R,6S)-2-(1-cyclopropyl-1H-pyrazol-4-yl)-6-methyl-4-(7-methyl-4-(3-(trifluoromethyl)bicyclo[1.1.1]pentan-1-yl)pteridin-2-yl)morpholine]	< 50	

Now from value to compound:

EC50 [1] [nM]	EC50 [2] [nM]	Structure (SMILES)
	< 50	Cc1nc2nc([C@H]3CCO[C@@H](c4cnn(CC5CC5)c4)C3)nc(-c3ccc(C(F)(F)F)cc3F)c2nc1C [Example I-1577, 2-[(2R,4S)-2-[1-(cyclopropylmethyl)pyrazol-4-yl]tetrahydropyran-4-yl]-4-[2-fluoro-4-(trifluoromethyl)phenyl]-6,7-dimethyl-pteridine]
	< 50	COc1nc2c(-c3ccc(F)cc3F)nc([C@@H]3CCO[C@H](c4cnn(C5CC5)c4)C3)nc2nc1C (racemic) [Example I-1653, 4-(2,4-difluorophenyl)-6-methoxy-7-methyl-2-[rac-(2R,4S)-2-(1-cyclopropylpyrazol-4-yl)tetrahydropyran-4-yl]pteridine]
	50 to 500	Cc1nc2nc([C@H]3CCO[C@@H](c4cnc(C5CC5)o4)C3)nc(-c3ccc(F)cc3F)c2nc1C [Example I-1699, 2-cyclopropyl-5-[(2R,4S)-4-[4-(2,4-difluorophenyl)-6,7-dimethyl-pteridin-2-yl]tetrahydropyran-2-yl]oxazole]
	500 to 3000	Cc1nc2nc([C@H]3CCO[C@@H](c4cnn(C5CC5)c4)C3)nc(-c3ccc(C(C)C)cc3F)c2nc1C [Example I-1192]
	50 to 500	Cc1nc2nc(-c3cc(-c4cnn(C5CC5)c4)c(=O)n(C)c3)nc(-c3ccc(F)cc3F)c2nc1C [Example I-1461, 3-(1-cyclopropyl-1H-pyrazol-4-yl)-5-(4-(2,4-difluorophenyl)-6,7-dimethylpteridin-2-yl)-1-methylpyridin-2(1H)-one]
	< 50	[2H]C([2H])([2H])c1nc2nc(N3C[C@@H](C)O[C@@H](c4cnn(C5CC5)c4)C3)nc(-c3ccc(F)cc3F)c2nc1C([2H])([2H])[2H] [Example I-1129, (2S,6R)-2-(1-cyclopropylpyrazol-4-yl)-4-[4-(2,4-difluorophenyl)-6,7-bis(trideuteriomethyl)pteridin-2-yl]-6-methyl-morpholine]
	50 to 500	Cc1nc2nc(N3C[C@@H](C4CC4)O[C@@H](c4cnn(C(F)F)c4)C3)nc(-c3ccc(F)cc3F)c2nc1C (stereo in doubt) [Example I-1702, (2R,6S)-2-cyclopropyl-6-[1-(difluoromethyl)pyrazol-4-yl]-4-[4-(2,4-difluorophenyl)-6,7-dimethyl-pteridin-2-yl]morpholine]
	< 50	COCn1cc([C@H]2CN(c3nc(-c4ccc(Cl)cc4F)c4nc(C)c(C)nc4n3)C[C@@H](C)O2)cn1 [Example I-1446, (2S,6R)-4-[4-(4-chloro-2-fluoro-phenyl)-6,7-dimethyl-pteridin-2-yl]-2-[1-(methoxymethyl)pyrazol-4-yl]-6-methyl-morpholine]
	< 50	Cc1nc2nc(N3C[C@@H](C)O[C@@H](c4cnn(C5CC5)c4)C3)cc(-c3ccc(Cl)cc3F)c2nc1C [Example I-1076, (2S,6R)-4-[8-(4-chloro-2-fluoro-phenyl)-2,3-dimethyl-pyrido[2,3-b]pyrazin-6-yl]-2-(1-cyclopropylpyrazol-4-yl)-6-methyl-morpholine]
	< 50	Cc1nc2nc(N3C[C@@H](C(F)F)O[C@@H](c4cnn(C5CC5)c4)C3)nc(-c3ccc(F)cc3F)c2nc1C (single isomer, unassigned) [Example I-1467]
	50 to 500	Cc1nc2nc(N3CCOC(c4cnn5c4CCC5)C3)nc(-c3ccc(F)cc3F)c2nc1C (stereo in doubt) [Example I-1532, (2S)-4-[4-(2,4-difluorophenyl)-6,7-dimethyl-pteridin-2-yl]-2-(5,6-dihydro-4H-pyrrolo[1,2-b]pyrazol-3-yl)morpholine]
	500 to 3000	Cc1nc2nc(-c3ccc(Cl)cc3F)cc(N3C[C@@H](C)O[C@@H](c4cnn(C5CC5)c4)C3)c2nc1C [Example I-1081, (2S,6R)-4-[6-(4-chloro-2-fluoro-phenyl)-2,3-dimethyl-pyrido[2,3-b]pyrazin-8-yl]-2-(1-cyclopropylpyrazol-4-yl)-6-methyl-morpholine]
